In patent US20050118310A1, “Formulations of compounds derived from natural sources and their use with irradiation for food preservation” (priority 2001, published 2005):
Marks after values point to notes of the source that are not given here.

Tests used:
psychrotrophic bacteria = experiment: Shelf life study, indigenous micro-organisms of ground beef, psychrotrophic count; format: cell-based
Experimental: (§1) Irradiation treatments of ground beef samples for D10 and shelf life determination were performed using UC-15B irradiator (MDS-Nordion International Inc., Kanata, ON, Canada) equipped with a ^60 Co source at a dose rate of 14.42 kGy/h). Irradiation doses used for D10 determination were ranged from 0.25 to 0.55 kGy for E. coli, from 0.50 to 2.0 kGy for S. typhi, and from 0.5 to 2.5 kGy for the mixture of indigenous microorganisms of ground beef. The shelf life study was performed on samples irradiated at 0.30, 0.85, and 1.75 kGy for E. coli, S. typhi, and the mixture of indigenous microorganisms of ground beef, respectively. For each active compound concentration tested, a group of non-irradiated samples sened as a control. For D10 determination, samples were analysed immediately after irradiation. For shelf life studies, samples were stored at 4° C. and analysed periodically.
(§2) Microbial analysis was performed by homogenising the samples for 2 mn in sterile peptone water (0.1%) using a Lab-blender 400 stomacher (Laboratory Equipment, London, UK). From this mixture, serial dilutions were prepared and appropriate ones were pour-plated in tryptic soy agar (TSA) (Difco, Laboratories, Detroit, Mich., USA) and incubated at 35° C., 24 hours for the numeration of E. coli and S. typhi. For the ground beef broth, the incubation was performed on Plate Count Agar (PCA; Difco) at 35° C. for 48 h for the numeration mesophilic bacteria, and at 7° C. for 10 days for the numeration of psychrotrophic bacteria. Enterobacteriaceae were numerated on Violet Red Bile Glucose Agar (VRBGA; Difco) 35° C. for 48 hours.
A shelf life study was undertaken to evaluate the radiation sensitivity during refrigerated storage conditions. Ground beef samples contaminated with E. coli, S. typhi, or a mixture of indigenous micro-organisms were irradiated in presence or absence of selected active compounds. […]

Salmonella typhi = experiment: Example 4 irradiation sensitivity (D10) of S. typhi in ground beef; format: cell-based; conditions: carvacrol 1.15%, thymol 1.60%
Experimental: as §1
(§3) Microbial analysis was performed by homogenising the samples for 2 mn in sterile peptone water (0.1%) using a Lab-blender 400 stomacher (Laboratory Equipment, London, UK). […]
(§4) The kinetics of bacteria destruction by irradiation with or without the food additives was evaluated by linear regression. Bacterial counts (log CFU/ml) were plotted against irradiation doses or active compounds concentration and D10 values were calculated using the PROC REG procedure of SAS (SAS Institute, Cary, N.C., USA). […]

[1] = system: Mixture of indigenous bacteria; experiment: Example 4 irradiation sensitivity (D10) of indigenous bacteria of ground beef; format: cell-based; conditions: thymol […], trans-cinnamaldehyde […]
Experimental: as §1, §3, §4

S. typhi [2] = experiment: Shelf life study, S. typhi in ground beef irradiated at 0.85 kGy; format: cell-based, Salmonella typhi; conditions: stored at 4° C., thymol 1.6%
Experimental: as §1, §2
(§5) A shelf life study was undertaken to evaluate the radiation sensitivity during refrigerated storage conditions. Ground beef samples contaminated with E. coli, S. typhi, or a mixture of indigenous micro-organisms were irradiated in presence or absence of selected active compounds. Due to the differences in sensitivity between the micro-organisms under study, the following irradiation doses were used: 0.30 kGy for E. coli, 0.85 kGy for S. typhi, and 1.75 kGy for the mixture of indigenous bacteria. The irradiation doses selected corresponded to the irradiation dose needed to produce 3 log CFU reduction in bacterial population in the control sample (without active compounds).

[3] = system: mixture of indigenous microorganisms of ground beef (mesophilic and psychrotrophic bacteria); experiment: Shelf life study, indigenous micro-organisms of ground beef, statements for mesophilic and psychrotrophic bacteria together; format: cell-based; conditions: for reduction of bacterial counts by irradiation: control 3 log CFU; for storage time before a bacterial count of approximately 6 log is reached: meat treated with formulation in conjunction with irradiation, about 8 days with irradiation alone
Experimental: as §1, §2, §5
(§6) The shelf life study in ground beef contaminated with the mixture of indigenous microorganisms of ground beef was conducted by evaluating mesophilic, psychrotrophic and total Enterobacteriaceae in the samples. […] Irradiation reduced the bacterial counts by various degrees depending on the type of active compound used: 3 log CFU reduction for control (without active compounds), 3.5 and more than 5 log CFU reduction for samples containing thymol and trans-cinnamaldehyde, respectively. […] Bacterial counts in both sarnples remained below detectable levels even after 44 days. […] A similar effect was also observed during storage for irradiated samples containing thymol as compared to samples without thymol. Between day 5 and day 15, a difference of 2 to 3 log CFU was observed between the two groups of samples.

mesophilic bacteria = experiment: Shelf life study, indigenous micro-organisms of ground beef, mesophilic count; format: cell-based; conditions: for shelf life period: 4° C., thymol […]
Experimental: as §1, §2, §5, §6

S. typhi [4] = experiment: Irradiation sensitivity (D10) of S. typhi in ground beef; format: cell-based, Salmonella typhi (ATCC 19430)
S. typhi [5] = experiment: Effect of carvacrol concentration on survival of S. typhi in ground beef irradiated at 0.5 kGy; format: cell-based, Salmonella typhi (ATCC 19430); conditions: ground beef irradiated at 0.50 kGy; for Increase in Sensitivity: vs 0% carvacrol
Source text: The irradiation treatments of ground beef samples for D10 determination was done using UC-15B irradiator (MDS-Nordion International Inc., Kanata, ON, Canada) equipped with a ^60Co source at a dose rate of 14.42 kGy/h). Irradiation doses used for D10 determination were ranged from 0.1 to 0.6 kGy for E. coli and from 0.50 to 2.0 kGy for S. typhi. Under frozen condition, the irradiation doses ranged from 0.1 to 0.7 kGy for E. coli and from 0.5 to 3.0 kGy for S. typhi. For the determination of the effect of various concentrations of carvacrol on the irradiation sensitivity, samples were irradiated at 0.25 kGy for E. coli and at 0.5 kGy for S. typhi. Irradiation doses used for D10 determination in chicken breast ranged from 0.1 to 0.7 kGy for E. coli and from 0.25 to 2.0 kGy for S. typhi. Samples were analysed immediately after irradiation to determine the microbial count.
Samples were homogenised for 2 min in sterile peptone water (0.1%) using a Lab-blender 400 stomacher (Laboratory Equipment, London, UK). From this mixture, serial dilutions were prepared and appropriate ones were pour-plated in tryptic soy agar (TSA) (Difco, Laboratories, Detroit, Mich., USA) and incubated at 35° C., 24 hours for the numeration of E. coli and S. typhi.
The effect of various concentrations of carvacrol in irradiated ground beef was evaluated in order to determine if lower concentrations of carvacrol could also increase the irradiation sensitivity of E. coli and S. typhi in ground beef. For these experiments, sterile ground beef was contaminated with either E. coli or S. typhi to a final concentration of 10^5 CFU/g. Various concentrations of carvacrol ranging from 0 to 2.0% were added to the ground beef samples and transferred in portions of 25 g each to sterile petri plates (60×15 nmu) then stored at 4° C. until irradiation treatment (approximately 15 h).

[6] = ground beef irradiated at 1.75 kGy, thymol […], trans-cinnamaldehyde […]
[7] = ground beef irradiated at 1.75 kGy, stored at 4° C., trans-cinnamaldehyde […]
[8] = trans-cinnamaldehyde alone (no irradiation), stored at 4° C.
[9] = ground beef, air, 4° C., carvacrol 1.0% alone or with ascorbic acid 0.5% and/or tetrasodium pyrophosphate 0.1%

Cc1ccc(C(C)C)c(O)c1 [Thymol, thymol]
shelf life period (psychrotrophic bacteria; non-irradiated samples, 4° C., thymol […], control 2 days): 9 days | D10(kGy) (Salmonella typhi): 0.382 kGy | D10(kGy) [1]: 0.779 kGy | days of storage after which complete inhibition was produced (S. typhi [2]; carvacrol 1.15%): 28 days | bacterial counts compared with the irradiated control after 15 days of storage (S. typhi [2]; carvacrol 1.15%, lower than control): sinilar in both cases | difference between samples irradiated in presence and absence of compound at day 7 (S. typhi [2]): 3 log CFU | complete inhibition during storage ([3]; ground beef irradiated at 1.75 kGy, stored at 4° C., thymol […]): no complete inhibition | level of bacteria observed for irradiated samples during storage ([3]; ground beef irradiated at 1.75 kGy, stored at 4° C., thymol […], 10^7 without thymol): 10^4 CFU/g | reduction of bacterial counts by irradiation [3, 6]: 3.5 log CFU | storage time before a bacterial count of approximately 6 log is reached [3]: 15 days | shelf life period (mesophilic bacteria; irradiated samples (1.75 kGy), control 8 days): 23 days | shelf life period (mesophilic bacteria; non-irradiated samples, control 2 days): 8 days

O=C/C=C/c1ccccc1 [Trans-cinnamaldehyde, trans-cinnamaldehyde]
D10(kGy) (S. typhi [4]; ground beef packed under MAP (60% O2-30% CO2-10% N2), 4° C., trans-cinnamaldehyde […]): 0.110 ± 0.002^b* kGy | D10(kGy) (S. typhi [4]; ground beef packed under air, 4° C., trans-cinnamaldehyde […]): 0.356 ± 0.005^a* kGy | Increase in Sensitivity (S. typhi [4]; ground beef under MAP, trans-cinnamaldehyde […] vs control under the same atmosphere): 50.2% | Increase in Sensitivity (S. typhi [4]; ground beef under air, trans-cinnamaldehyde […] vs control under the same atmosphere): 32.3% | increase in irradiation sensitivity by modification of the packaging atmosphere (S. typhi [4]; ground beef, MAP vs air, both with trans-cinnamaldehyde […]): 69.1% | irradiation dose required to completely eliminate S. typhi from the ground beef (S. typhi [4]; under MAP, trans-cinnamaldehyde […]): 0.6 kGy | irradiation dose required to completely eliminate S. typhi from ground beef (S. typhi [4]; under air, trans-cinnamaldehyde 0.89%): 0.75 kGy | irradiation dose required to completely eliminate S. typhi from the ground beef (S. typhi [4]; under air, trans-cinnamaldehyde […]): around 2 kGy | days after which complete inhibition of bacterial growth resulted (psychrotrophic bacteria; [7]): 1 days | day of storage at which complete inhibition occurred (psychrotrophic bacteria; [8]): 36 days | D10(kGy) [1]: 0.494 kGy | days for which bacterial counts remained below detectable levels [3, 7]: ≥ 44 days | reduction of bacterial counts by irradiation [3, 6]: more than 5 log CFU | storage time before a bacterial count of approximately 6 log is reached [3]: more than 35 days | days after which complete inhibition of bacterial growth resulted (mesophilic bacteria; [7]): 3 days | bacteria counts at day 44 (mesophilic bacteria; [8]): ~1 log CFU/g | bacterial population reached after 36 days of storage (mesophilic bacteria; without irradiation, stored at 4° C., trans-cinnamaldehyde […]): 1 log CFU

Cc1ccc(C(C)C)cc1O [Carvacrol, carvacrol]
Log CFU/g (S. typhi [5]; carvacrol 0.50%): 3.526 ± 0.061^b Log CFU/g | Increase in Sensitivity (S. typhi [5]; carvacrol 0.50%): 15.4% | Log CFU/g (S. typhi [5]; carvacrol 1.00%): 2.545 ± 0.112^d Log CFU/g | Increase in Sensitivity (S. typhi [5]; carvacrol 1.00%): 39.0% | Log CFU/g (S. typhi [5]; carvacrol 1.75%): 0.000 ± 0.000^g Log CFU/g | Increase in Sensitivity (S. typhi [5]; carvacrol 1.75%): 100% | Log CFU/g (S. typhi [5]; carvacrol 2.00%): 0.000 ± 0.000^g Log CFU/g | Increase in Sensitivity (S. typhi [5]; carvacrol 2.00%): 100% | D10(kGy) (S. typhi [4]; [9]): 0.235 ± 0.0158^a kGy | irradiation dose for complete elimination of S. typhi (S. typhi [4]; [9]): 1.25 kGy | Increase in Sensitivity (S. typhi [4]; vs control (0.519 kGy), ground beef, air, 4° C., carvacrol 1.0% alone or with ascorbic acid 0.5% and/or tetrasodium pyrophosphate 0.1%): 54.7% | D10(kGy) (Salmonella typhi): 0.316 kGy | days of storage after which complete inhibition was produced (S. typhi [2]; carvacrol 1.15%): 22 days
